Reference: PMC5520056, “Cryo-EM structures of the ATP-bound Vps4^E233Q hexamer and its complex with Vta1 at near-atomic resolution” (Nature Communications, 2017)

Target: T1, Vps4–Vta1 complex (Saccharomyces cerevisiae, UniProt P52917)
T1 construct: both proteins with N-terminal His6 tag (pET28a), E. coli BL21(DE3); Vps4 hexamer with Vta1 at ~2:1 Vta1/Vps4; four Vta1 CTD dimers modelled; with Vacuolar protein sorting-associated protein VTA1
T1 sequence (P52917 1-437 E233Q): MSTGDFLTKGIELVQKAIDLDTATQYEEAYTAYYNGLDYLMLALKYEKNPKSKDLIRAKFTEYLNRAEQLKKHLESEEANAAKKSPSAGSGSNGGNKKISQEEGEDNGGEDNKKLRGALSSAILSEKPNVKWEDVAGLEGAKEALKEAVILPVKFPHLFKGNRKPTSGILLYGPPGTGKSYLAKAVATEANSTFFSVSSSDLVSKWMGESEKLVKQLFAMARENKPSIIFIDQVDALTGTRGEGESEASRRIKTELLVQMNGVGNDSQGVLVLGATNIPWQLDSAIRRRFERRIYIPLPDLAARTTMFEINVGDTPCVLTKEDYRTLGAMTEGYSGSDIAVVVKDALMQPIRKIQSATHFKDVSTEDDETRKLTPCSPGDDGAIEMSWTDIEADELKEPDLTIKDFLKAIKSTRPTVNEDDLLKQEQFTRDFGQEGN
T1 sequence (Q06263 1-330 partner): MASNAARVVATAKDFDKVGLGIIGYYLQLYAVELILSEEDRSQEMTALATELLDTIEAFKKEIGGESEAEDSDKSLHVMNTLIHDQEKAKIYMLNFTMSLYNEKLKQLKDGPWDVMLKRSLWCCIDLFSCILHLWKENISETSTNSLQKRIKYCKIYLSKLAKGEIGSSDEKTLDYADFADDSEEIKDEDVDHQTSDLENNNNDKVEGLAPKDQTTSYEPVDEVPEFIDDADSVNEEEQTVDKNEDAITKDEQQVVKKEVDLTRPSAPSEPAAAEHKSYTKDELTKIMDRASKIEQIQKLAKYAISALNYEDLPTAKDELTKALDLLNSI
Assay: malachite green phosphate release (ATPase)
Assay type: biochemical
Details: 1 uM Vps4, 5 mM ATP, 2 mM MgCl2, pH 7.5, 37 °C; Vta1 present

## Nc1ncnc2c1ncn2[C@@H]1O[C@H](COP(=O)(O)OP(=O)(O)OP(=O)(O)O)[C@@H](O)[C@H]1O [ATP]
  malachite green phosphate release (ATPase): the ATPase activity of the wild-type Vps4 was increased by twofold in the presence of Vta1
